The values that follow come from publication PMC4309560, “Creating Novel Activated Factor XI Inhibitors through Fragment Based Lead Generation and Structure Aided Drug Design” (PLoS ONE, 2015).

Data set [1] deals with T1, Human FXIa (Homo sapiens, UniProt P03951).
T1 construct: purchased HTI, Essex Junction, USA
As to the kind of experiment: FXIa enzymatic chromogenic assay. The class given is biochemical. The method, then:
(§1) Enzymatic assay. […] Selected compounds were also screened against other serine proteases to evaluate their selectivity profiles.
(§2) Once the compounds were synthesized and characterized, enzymatic assays were performed to evaluate the inhibitory activity of the resulting compounds against FXIa and other serine proteases. […] IC50 values for the compounds were determined using equation: Q= V/(1+([I]/IC50)^n) Q denotes the assay readout, V denotes the uninhibited velocity of the enzyme, [I] denotes the inhibitor concentration, n denotes the slope and IC50 is the inhibitor concentration at V/2.
(§3) [S] denotes the substrate concentration.

Data set [2] concerns the target T2, Human recombinant thrombin (Homo sapiens, UniProt P00734).
T2 construct: Human recombinant thrombin was prepared in house; made in house
As to the kind of experiment: Thrombin (FIIa) chromogenic assay. The data set is classed as biochemical. To be noted: for inhibition at 99 µM: read-out: FIIa % inhibition at 99 μM. How it is done: as §1, §2, §3
Thrombin. Human recombinant thrombin was prepared in house.

Data set [3] has as its target T3, Human PKK (Homo sapiens, UniProt P03952).
T3 construct: trypsin, plasma kallikrein (PKK), FIXa; purchased Calbiochem, Darmstadt, Germany
As to the kind of experiment: PKK (plasma kallikrein) chromogenic assay. The following applies: for Ki: converted from IC50. The class given is biochemical. The method, then:
as §1, §2, §3
PKK. Human PKK was from Calbiochem, Darmstadt, Germany.

Data set [4] concerns the target Recombinant human trypsin (Homo sapiens, UniProt P07477). As to the kind of experiment: biochemical. To be noted: read-out: Trypsin % inhibition at 99 μM. The method, then: as §1, §2
Trypsin. Recombinant human trypsin was from Polymun, Vienna, Austria.

The target in data set [5] is Human tPA (Homo sapiens, UniProt P00750). As to the kind of experiment: biochemical. The following applies: read-out: tPA % inhibition at 99 μM. The method, then:
as §1, §2
tPa. Human tPA was from Biopool, Umeå, Sweden.

Data set [6] has as its target Human FXa (Homo sapiens, UniProt P00742). As to the kind of experiment: biochemical. The following applies: read-out: FXa % inhibition at 99 μM. How it is done: as §1, §2
The target in data set [7] is Human FIXa (Homo sapiens, UniProt P00740). As to the kind of experiment: biochemical. The following applies: read-out: FIXa % inhibition at 99 μM. The method, then:
as §1, §2

The target of data set [8] is T4, Human plasmin (Homo sapiens, UniProt P00747).
T4 construct: Human plasmin was from Enzyme Research Laboratories, Swansea, UK; purchased Enzyme Research Laboratories, Swansea, UK
As to the kind of experiment: Plasmin chromogenic assay. To be noted: for inhibition at 99 µM: read-out: Plasmin % inhibition at 99 μM. The class given is biochemical. How it is done:
as §1, §2, §3
Plasmin. Human plasmin was from Enzyme Research Laboratories, Swansea, UK.

Data set [9] can be described thus: Caco2 efflux. The following applies: human, Caco-2; Caco2, Papp B to A / Papp A to B, pH 7.4 at side A. The data set is classed as in vitro ADME. From the text: Efflux was studied in the same Caco2 cells with the modification that HBSS buffer pH 7.4 was used on both sides of the monolayer. The permeability was studied in the apical to basolateral direction (Papp AB) as well as in the basolateral to apical direction and (Papp BA). Efflux ratios were derived from the following equation: Papp BA/Papp AB.
(In general: Caco-2 cells form a polarised layer with tight junctions and transporters.)

In data set [10] the test system is rat hepatocytes. As to the kind of experiment: Rat hepatocyte metabolic stability assay. The data set is classed as in vitro ADME. The method, then: Rat hepatocyte metabolic stability was determined in accordance with the method described by Jacobson et al.. Cryo preserved hepatocytes at a concentration of 10^6 viable cells/mL were used. After thawing, hepatocytes were incubated for 10 min to warm to 37°C and test compounds, dissolved in acetonitrile, were added to give a final concentration of 1 μM. At 0.5, 5, 15, 30, 45, 60, 80, 100 and 120 min, the incubation system was mixed and 20 μL aliquots were transferred at each time point to wells in a separate plate filled with 80 μL acetonitrile to stop the reaction. The quenching plate was then vortexed followed by centrifugation, and supernatants were analyzed by LC/MS/MS. Peak areas were determined from extracted ion chromatograms, and the in vitro intrinsic clearance (in vitro CLint, in μL/min/10^6 cells) of parent compound was calculated from the slope in the regression analysis of the natural logarithm of parent concentration vs. time curve.

For data set [11], the system named is Caco2 cells. Kind of data set: Caco2 permeability. The class given is in vitro ADME. To be noted: measured at pH 7.4 at side A. How it is done:
A monolayer of Caco2 cells, cultured on semi-permeable polycarbonate surfaces, was used to study the permeability in the apical to basolateral direction. The process was atomized by a robotic Tecan EVO platform (Männerdorf, Switzerland) and 24-transwell plates from Costar (Cambridge, MA, USA). HBSS buffer pH 7.4 was dispensed to the basal side of the monolayer. […] Samples for quantitative analysis by LC/MS/MS were withdrawn before the addition of the test substrate and at 45 and 120 min post addition of the test substrate. During incubation the transwell plates were placed in a shaking incubator at 37°C between sampling. The peak areas were exported to Excel where Papp-values and recoveries were calculated. Twenty-two reference compounds with known human oral bioavailability were used to establish a correlation curve with Papp versus the fraction of the oral dose absorbed (fa).

Read-outs that look alike come from different tables or passages of the source. Where only a bound is given, the exact number is not on record here.

T4 sequence (P00747 581-810 limits assumed): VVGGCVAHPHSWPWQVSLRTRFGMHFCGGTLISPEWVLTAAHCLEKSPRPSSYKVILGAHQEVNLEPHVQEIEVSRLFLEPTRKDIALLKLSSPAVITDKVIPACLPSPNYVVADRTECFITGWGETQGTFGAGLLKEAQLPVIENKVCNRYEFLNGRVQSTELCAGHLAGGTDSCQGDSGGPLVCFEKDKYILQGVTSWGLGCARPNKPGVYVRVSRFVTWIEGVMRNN
T4 sequence (P00747 97-580 partner limits assumed): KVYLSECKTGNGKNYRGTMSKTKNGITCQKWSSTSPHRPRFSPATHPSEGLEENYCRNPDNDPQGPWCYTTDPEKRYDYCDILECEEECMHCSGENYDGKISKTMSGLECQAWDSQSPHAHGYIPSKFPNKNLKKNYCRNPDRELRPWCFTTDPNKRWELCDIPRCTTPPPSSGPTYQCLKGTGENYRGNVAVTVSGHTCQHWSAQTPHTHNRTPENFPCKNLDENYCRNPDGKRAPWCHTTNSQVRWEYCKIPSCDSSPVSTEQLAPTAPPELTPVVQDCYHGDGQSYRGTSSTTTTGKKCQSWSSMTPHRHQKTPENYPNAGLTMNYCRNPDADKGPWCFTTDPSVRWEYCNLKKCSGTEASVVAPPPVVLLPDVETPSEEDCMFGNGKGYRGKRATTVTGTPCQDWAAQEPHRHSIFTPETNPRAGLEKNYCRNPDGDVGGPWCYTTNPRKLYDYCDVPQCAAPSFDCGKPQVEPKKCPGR
Human FXa, sequence (P00742 235-488 limits assumed): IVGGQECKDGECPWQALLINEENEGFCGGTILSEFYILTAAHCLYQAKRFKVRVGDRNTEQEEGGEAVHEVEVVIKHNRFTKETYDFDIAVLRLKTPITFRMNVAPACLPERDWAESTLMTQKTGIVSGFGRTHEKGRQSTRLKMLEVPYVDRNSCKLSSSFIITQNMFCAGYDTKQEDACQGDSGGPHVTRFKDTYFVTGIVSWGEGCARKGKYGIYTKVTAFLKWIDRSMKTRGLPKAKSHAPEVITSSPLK
Human FXa, sequence (P00742 41-179 partner limits assumed): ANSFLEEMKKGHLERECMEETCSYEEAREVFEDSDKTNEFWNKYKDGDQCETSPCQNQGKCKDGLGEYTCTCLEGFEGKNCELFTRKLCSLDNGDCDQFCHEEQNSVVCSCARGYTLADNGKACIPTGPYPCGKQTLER
Human FIXa, sequence (P00740 227-461 limits assumed): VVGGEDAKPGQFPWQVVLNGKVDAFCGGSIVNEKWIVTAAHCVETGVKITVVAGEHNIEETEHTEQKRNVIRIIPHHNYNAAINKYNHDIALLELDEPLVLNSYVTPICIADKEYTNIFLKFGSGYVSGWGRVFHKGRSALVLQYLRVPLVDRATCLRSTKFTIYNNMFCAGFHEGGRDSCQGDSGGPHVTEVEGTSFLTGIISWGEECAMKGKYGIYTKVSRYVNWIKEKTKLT
Human FIXa, sequence (P00740 47-191 partner limits assumed): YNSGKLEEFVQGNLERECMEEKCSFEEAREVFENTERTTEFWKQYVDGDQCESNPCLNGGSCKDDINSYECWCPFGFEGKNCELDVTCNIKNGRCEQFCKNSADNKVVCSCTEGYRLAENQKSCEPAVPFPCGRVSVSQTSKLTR
T3 sequence (P03952 391-638 limits assumed): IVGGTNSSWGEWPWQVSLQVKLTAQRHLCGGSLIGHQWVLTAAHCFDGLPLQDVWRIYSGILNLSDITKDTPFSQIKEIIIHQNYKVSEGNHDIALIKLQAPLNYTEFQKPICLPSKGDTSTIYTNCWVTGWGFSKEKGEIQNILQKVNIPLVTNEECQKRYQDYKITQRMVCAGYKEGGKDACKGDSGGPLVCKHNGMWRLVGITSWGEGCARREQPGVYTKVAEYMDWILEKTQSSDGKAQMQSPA
T3 sequence (P03952 20-390 partner limits assumed): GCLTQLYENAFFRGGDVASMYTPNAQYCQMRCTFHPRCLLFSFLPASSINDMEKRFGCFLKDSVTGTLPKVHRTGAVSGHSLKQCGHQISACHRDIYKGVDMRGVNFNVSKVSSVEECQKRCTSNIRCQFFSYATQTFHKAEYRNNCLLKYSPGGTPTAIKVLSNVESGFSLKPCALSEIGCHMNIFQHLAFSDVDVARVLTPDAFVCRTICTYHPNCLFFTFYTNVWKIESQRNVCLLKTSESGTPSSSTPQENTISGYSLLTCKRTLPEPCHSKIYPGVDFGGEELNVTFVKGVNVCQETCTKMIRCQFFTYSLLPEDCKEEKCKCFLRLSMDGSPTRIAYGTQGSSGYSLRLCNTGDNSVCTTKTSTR
Human tPA, sequence (P00750 36-562): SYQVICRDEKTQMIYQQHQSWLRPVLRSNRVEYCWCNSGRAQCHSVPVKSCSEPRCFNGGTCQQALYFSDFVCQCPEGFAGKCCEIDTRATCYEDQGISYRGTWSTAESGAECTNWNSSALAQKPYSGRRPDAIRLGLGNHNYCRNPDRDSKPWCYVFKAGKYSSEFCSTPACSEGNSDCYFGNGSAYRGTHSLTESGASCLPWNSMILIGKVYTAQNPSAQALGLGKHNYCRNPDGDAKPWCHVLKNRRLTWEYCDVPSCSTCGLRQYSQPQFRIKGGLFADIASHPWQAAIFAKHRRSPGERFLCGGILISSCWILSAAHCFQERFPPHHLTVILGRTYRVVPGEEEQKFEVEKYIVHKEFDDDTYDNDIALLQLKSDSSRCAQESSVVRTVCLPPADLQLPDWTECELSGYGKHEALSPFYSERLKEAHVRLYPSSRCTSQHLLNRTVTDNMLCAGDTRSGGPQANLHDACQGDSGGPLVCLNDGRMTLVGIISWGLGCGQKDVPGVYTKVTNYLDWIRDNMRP
T1 sequence (P03951 388-625): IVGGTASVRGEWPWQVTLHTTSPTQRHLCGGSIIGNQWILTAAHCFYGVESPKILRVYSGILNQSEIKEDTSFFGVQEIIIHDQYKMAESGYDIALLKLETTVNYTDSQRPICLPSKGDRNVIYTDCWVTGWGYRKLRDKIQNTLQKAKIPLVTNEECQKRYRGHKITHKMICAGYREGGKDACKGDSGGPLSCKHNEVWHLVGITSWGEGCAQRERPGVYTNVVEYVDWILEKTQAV
T1 sequence (P03951 19-387): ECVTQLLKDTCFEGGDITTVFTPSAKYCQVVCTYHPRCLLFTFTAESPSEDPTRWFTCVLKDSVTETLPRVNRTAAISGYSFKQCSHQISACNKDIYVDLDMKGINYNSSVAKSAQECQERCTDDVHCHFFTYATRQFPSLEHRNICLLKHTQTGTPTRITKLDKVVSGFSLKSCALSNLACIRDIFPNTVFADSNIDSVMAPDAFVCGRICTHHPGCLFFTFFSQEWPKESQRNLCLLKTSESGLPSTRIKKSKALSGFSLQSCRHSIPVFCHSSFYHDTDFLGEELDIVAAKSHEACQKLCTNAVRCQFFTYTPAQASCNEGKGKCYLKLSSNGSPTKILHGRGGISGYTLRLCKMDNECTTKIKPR

What is called IC50 is the concentration that gives 50% inhibition. Turning to `[H]/N=C(/N)c1ccc2cc(C(=O)Nc3ccccc3)cc(Nc3ncccn3)c2c1` [Compound 1], in [1], the IC50 is < 0.14 µM.

One may read the Ki as the dissociation constant of the complex between target and ligand, obtained from inhibition or displacement. In data set [1], `CCCS(=O)(=O)N[C@@H](C(=O)N[C@@H](CC(C)C)C(=O)NCc1ccc(C(=N)N)cc1)C1CCCCC1` [Compound 2, reference compound] registered an IC50 of 0.11 µM and a Ki of 0.06 µM.

Molecule `O=c1ccc2cc(Cl)ccc2[nH]1` [Compound 5] had an IC50 in data set [1] of 140 µM. Also, the “ligand efficiency (LE)” value in [1] (FXIa) was 0.44. For the same molecule, in data set [1] (FXIa, subtracted term, so ΔG itself is negative), the “-ΔG fragment (printed with reversed sign in the ΔG link equation)” value stood at 5.66 kcal/mol. Besides, in [1] (read-out: FXIa Ki), the Ki was determined as 70 µM. The inhibition at 99 µM in [2] was determined as 8%; in data set [3] (read-out: PKK % inhibition at 99 μM) it was 5%; in [4], 0%; in data set [5], 0%; in data set [6] it was 31%; in data set [7], 1%. Moreover, the inhibition at 99 µM in data set [8] turned out to be 31%.

`N=C(N)c1ccccc1` [Compound 7, benzamidine, reference compound] came in with an IC50 in data set [1] of 610 µM.

For the molecule `COC(=O)Nc1ccc(-c2nc(CNC(=O)CCc3cc(Cl)ccc3-n3cnnn3)[nH]c2Cl)cc1` [Compound 11, reference compound], the IC50 in data set [1] is 0.16 µM; in [2], 63 µM; in data set [3] it was 20 µM. For the same molecule, the Ki in [1] came out at 0.08 µM; in data set [2] (converted from IC50), 31 µM; in data set [3], 4.2 µM. Besides, the inhibition at 99 µM in data set [4] amounted to 4%; in data set [5], 0%; in data set [6] it was 6%; in [7], 0%; in [8] it was 0%.

`CC(=O)N[C@@H](Cc1ccccc1)C(=O)NCc1cc(=O)[nH]c2ccc(Cl)cc12` [Compound 14, (S)-2-Acetamido-N-{(6-chloro-2-oxo-1,2-dihydroquinolin-4-yl)methyl}-3-phenylpropanamide]: the values for the IC50 in data set [1] and in [3] were 33 µM and 59 µM, respectively. Moreover, the inhibitory constant (Ki) amounted to 16 µM in data set [1] and 12 µM in data set [3]. The “ligand efficiency (LE)” value in [1] (FXIa) is listed as 0.22. In addition, the inhibition at 99 µM was determined as 9% in data set [2]; 18% in data set [4]; 3% in data set [5]; 0% in [6]; 4% in data set [7]; 7% in data set [8].

On to `CN(C)C(=O)[C@H](Cc1ccccc1)NC(=O)c1ccc2[nH]c(=O)cc(O)c2c1` [Compound 16, (S)-N-(1-(Dimethylamino)-1-oxo-3-phenylpropan-2-yl)-4-hydroxy-2-oxo-1,2-dihydroquinoline-6-carboxamide], for which the IC50 in data set [1] is > 1000 µM. The inhibition at 1000 µM in [1] (read-out: FXIa % inh. at 1 mM) came to 36%.

In data set [1], `O=C1CC(CNC(=O)[C@H](Cc2ccccc2)NC(=O)c2ccc3[nH]c(=O)cc(O)c3c2)c2cc(Cl)ccc2N1` (some centres unmarked) [Compound 18, N-({2S}-1-({6-Chloro-2-oxo-1,2,3,4-tetrahydroquinolin-4-yl}methylamino)-1-oxo-3-phenylpropan-2-yl)-4-hydroxy-2-oxo-1,2-dihydroquinoline-6-carboxamide] came in with an IC50 of 0.01 µM and a Ki of 0.005 µM.

`Cc1cc(N)nc2ccccc12` [Compound 19]: in [1], half-maximal inhibition (IC50) was put at 240 µM. This molecule also displayed a Ki in [1] of 120 µM. Moreover, the inhibition at 99 µM in [2] stood at 8%; in [4] it was 43%; in data set [5], 7%; in [6], 9%; in [7] it was 7%; in data set [8] it was 8%.

For `O=C1CC(CC(=O)NC(Cc2ccccc2)C(=O)Nc2ccc(-c3nnn[nH]3)cc2)c2cc(Cl)ccc2N1` (centres unmarked) [Compound 20, N-(4-(1H-Tetrazol-5-yl)phenyl)-2-(2-(6-chloro-2-oxo-1,2,3,4-tetrahydroquinolin-4-yl)acetamido)-3-phenylpropanamide], the IC50 in data set [1] was 0.33 µM; in data set [3] it was 2.3 µM. The results for the Ki in data set [1] and in [3] were 0.16 µM and 0.48 µM, respectively. Also, the inhibition at 99 µM in data set [2] was determined as 10%; in [4] it was 7%; in data set [5], 15%; in [6], 12%; in data set [7] it was 4%; in data set [8], 8%.

In the case of `O=C(CC1Cc2cc(Cl)ccc2NC1=O)NC(Cc1ccccc1)C(=O)Nc1ccc(-c2nnn[nH]2)cc1` (centres unmarked) [Compound 21, N-(4-(1H-Tetrazol-5-yl)phenyl)-2-(2-(6-chloro-2-oxo-1,2,3,4-tetrahydroquinolin-3-yl)acetamido)-3-phenylpropanamide], the IC50 in data set [1] worked out at 1.9 µM; in [3], 25 µM. Besides, the Ki amounted to 0.95 µM in [1] and 5.2 µM in [3]. Also, the inhibition at 99 µM in data set [2] amounted to 2%; in [4], 1%; in data set [5], 3%; in data set [6], 0%; in data set [7], 0%; in data set [8], 0%.

Take `O=C(Cc1cc2cc(Cl)ccc2[nH]c1=O)NC(Cc1ccccc1)C(=O)Nc1ccc(-c2nnn[nH]2)cc1` (centres unmarked) [Compound 22, N-(4-(1H-Tetrazol-5-yl)phenyl)-2-(2-(6-chloro-2-oxo-1,2-dihydroquinolin-3-yl)acetamido)-3-phenylpropanamide]: the IC50 was 10 µM in data set [1], 10 µM in [3] and 70 µM in data set [8]. The Ki in [1] is 5 µM; in data set [3], 2.1 µM; in data set [8] (converted from IC50), 33 µM. Also, the inhibition at 99 µM in [2] is 27%; in data set [4], 14%; in data set [5], 18%; in data set [6], 24%; in data set [7], 7%.

In [1], `O=C(CCc1cc2cc(Cl)ccc2[nH]c1=O)N[C@@H](Cc1ccccc1)C(=O)Nc1ccc(-c2nnn[nH]2)cc1` [Compound 23, (S)-N-(4-(1H-Tetrazol-5-yl)phenyl)-2-(3-(6-chloro-2-oxo-1,2-dihydroquinolin-3-yl)propanamido)-3-phenylpropanamide] registered a half-inhibitory concentration (IC50) of 67 µM and a Ki of 34 µM.

In [1], `O=C(CCc1cc(=O)[nH]c2ccc(Cl)cc12)N[C@@H](Cc1ccccc1)C(=O)Nc1ccc(-c2nnn[nH]2)cc1` [Compound 24, (S)-N-(4-(1H-Tetrazol-5-yl)phenyl)-2-(3-(6-chloro-2-oxo-1,2-dihydroquinolin-4-yl)propanamido)-3-phenylpropanamide] had an IC50 of 9 µM and an inhibition constant Ki of 4.5 µM.

Usually efflux ratio stands for the permeability from basolateral to apical divided by that in the opposite direction, in the common usage. With `Cc1c(-c2ccccc2)n[nH]c1C(=O)N(C)Cc1cc(=O)[nH]c2ccccc12` [Compound 27], the efflux ratio in data set [9] came out at 6.7. In addition, in data set [10], the “Rat CLint” value was 58 μL/min/ 1·10^6 cells. In addition, in data set [1], the IC50 was 99 µM and the affinity corresponds to a Ki of 50 µM. Besides, the “Caco2 A to B permeability” value in data set [11] is 12 1·10^-6 cm/s.
